According to PMC10298051, “Hyperoside as a UV Photoprotective or Photostimulating Compound—Evaluation of the Effect of UV Radiation with Selected UV-Absorbing Organic Compounds on Skin Cells” (International Journal of Molecular Sciences, 2023):

What was measured:
[1] = Cytotoxicity (MTT) of UV-absorbing compounds in HaCaT culture without irradiation; assay type: cell-based, human; details: human, HaCaT keratinocytes, MTT, no irradiation, mean of 3 measurements
Protocol: (§1) The immortalized human keratinocytes HaCaT and reconstituted three-dimensional human epidermis model (EpiDerm, MatTek Europe, SVK) were grown in high-glucose DMEM (Sigma-Aldrich, Burlington, MA, USA) supplemented with sodium bicarbonate (3.7 g/L, Sigma-Aldrich, Burlington, MA, USA), fetal bovine serum (10% v/v, Biowest, France), and penicillin and streptomycin (100 U/mL and 100 μg/mL, respectively, Sigma-Aldrich, Burlington, MA, USA) in darkness under a humidified atmosphere with 5% CO2 at 37 °C. For all experiments, HaCaT was dissociated using TrypLE Express (Gibco by Thermo Fisher Scientific, Waltham, MA, USA) and transferred into 12-well plates at a total number of 1 × 10^5 cells and cultivated for 24 h. The UV sources with relatively homogeneous irradiance were made from commercially available phototherapeutic UV tubes [13]. […] The irradiance values were 6.8 ± 0.4 mW/cm^2 for the UVA source and 3.5 ± 0.4 mW/cm^2 for the UVB source.
(§2) HaCaT cells and Epiderm were incubated for 18 h in DMEM supplemented with UV-absorbing compounds. Irradiation of the culture cells was performed in 0.6 mL/well phosphate-buffered saline (PBS) supplemented with 5 mM glucose (PBS-G) in 12-well plates. In the case of the 3D epidermal models, for irradiation, 3 inserts were always placed in one well of a 6-well plate filled with 0.9 mL of PBS-G; otherwise, they were kept separately in a 24-well plate with 0.3 mL of DMEM per well. After irradiation, PBS was replaced with fresh DMEM and the plates with cells were placed in a CO2 incubator for 18 h. The MTT assay was initiated by adding 5 mg/mL of methylthiazol tetrazolium bromide (MTT, Sigma-Aldrich) to DMEM, resulting in a 10-fold lower concentration of MTT in each well. After 3 h, the medium was completely removed and the formazan crystals produced by the cells were dissolved in 0.6 mL of DMSO for cell cultures or in 2 mL of isopropanol for epidermal models. The absorbance of these solutions was spectroscopically measured at 570 nm.

HaCaT cells [2] = assay: Mitochondrial membrane potential (JC-1) in pre-treated HaCaT cells after UVA or UVB; assay type: cell-based, human; details: JC-1, concentration-dependent, UVA 24 J/cm^2 or UVB 1.2 J/cm^2
Protocol: The mitochondrial membrane potential in HaCaT cells was estimated using the fluorescent probe 5,5′,6,6′-tetrachloro-1,1′,3,3′ tetraethylbenzimidazolylcarbocyanine chloride (JC-1, Biotium, Fremont, CA, USA). After UV irradiation in PBS-G, JC-1 was added to the cells at the final assay concentration of 2 μg/mL and the cells were allowed to incubate for 20 min. Then, the fluorescence emission intensity was measured using a Tecan Infinite 200pro fluorescence reader at excitation and emission wavelengths of 490 nm and 590 nm, respectively.

HaCaT cells [3] = assay: Comet assay of DNA fragmentation in pre-treated HaCaT cells after UVA or UVB; assay type: cell-based, human; details: UVA 90 min 36 J/cm^2, HMBP 30 μM, 4-MBC 10 μM, t-UCA 300 μM, Ast 100 μM, Hyp 300 μM
Protocol: DNA damage caused by UVA or UVB radiation to the HaCaT cells pre-treated with UV-absorbing compounds was investigated by a comet assay. The growth medium was replaced by PBS-G and the cells were irradiated by means of the UVA or UVB sources for 90 or 8 min, respectively. After irradiation, PBS-G medium was replaced with DMEM and the cells were allowed to culture for 24 h. The Comet assay was performed as previously described by Manisova and her co-workers. The samples were finally stained by SYBR Green (Invitrogen, Thermo Fisher Scientific, Waltham, MA, USA) and manually scored using an Olympus IX 70 inverted fluorescence microscope with a CCD camera (Olympus, JPN) and CometScore 2.0 software (TriTek, Wilmington, DE, USA). Approximately 100 cells were randomly selected from each sample to assess DNA damage. The amount of DNA in the head (corresponding to low fragmentation) was evaluated.

HaCaT cells [4] = assay: Intracellular ROS production (CM-H2DCFDA) in pre-treated HaCaT cells after UVA or UVB; assay type: cell-based, human; details: for ROS production during UVA exposure: UVA 60 min 24 J/cm^2
Protocol: The production of the intracellular ROS induced by UVA or UVB after 18 h of incubation with UV-absorbing compounds was analyzed using the fluorescence probe 5-(and-6)-chloromethyl-2′,7′-dichlorodihydrofluorescein diacetate (CM-H2DCFDA, Invitrogen by Thermo Fisher Scientific, Waltham, MA, USA). The HaCaT cells were incubated in PBS-G buffer supplemented with 10 μM CM-H2DCFDA for 20 min and then, after washing twice in PBS-G, exposed to UVA or UVB radiation for 60 or 3 min. After irradiation, the fluorescence of CM-DCF was recorded using a Tecan Infinite 200 pro fluorescence reader (Tecan, Männedorf, Switzerland) at excitation and emission wavelengths 490 nm and 525 nm, respectively.

HaCaT cells [5] = assay: Cytotoxicity (MTT) of UV-absorbing compounds in HaCaT culture without irradiation; assay type: cell-based, human; details: for cell viability (not reduced below): at 300 μM
Protocol: as §1, §2

HaCaT cells [6] = assay: Phototoxicity test: MTT viability of pre-treated HaCaT cells after UVA or UVB exposure; assay type: cell-based, human; details: 18 h pre-incubation; for change in cell viability after UVA: UVA 60 min 24 J/cm^2, vs irradiated sample without compound
Protocol: In the next study, HaCaT cells were incubated with two apparently non-toxic concentrations of these UV-absorbing compounds for 18 h and then their effect on the viability of HaCaT cells exposed to UVA (for 60 min at a dose of 24 J/cm^2) and UVB radiation for 3 min (at a dose of 0.6 J/cm^2) was monitored.
as §1, §2

epidermis model EpiDerm = assay: MTT viability of pre-treated 3D epidermis model EpiDerm after UVA or UVB exposure; assay type: cell-based, human; details: 30 μM hyperoside or 100 μM trans-urocanic acid; 18 h or 42 h pre-incubation; UVA 24 or 36 J/cm^2
Protocol: Control samples without the presence of the compounds are marked as C. Each value represents mean ± S.E. from 3 measurements. * Significant difference compared to the sample without UV-absorbing compound (p < 0.05).
as §1
[…] The absorbance of these solutions was spectroscopically measured at 570 nm. The relative number of viable (oxidoreductase active) cells in the treated and untreated samples (controls) was expressed as a percentage.

HaCaT cells [7] = assay: Atomic force microscopy of HaCaT cell morphology after UV irradiation; assay type: cell-based, human; details: 50 µM for 4 h
Protocol: The size of HaCaT cells acquired by an atomic force microscope was calculated from 20 cells in an average using the NanoScope Analysis software. Cell diameter was measured along the longest part of the cell. Cells were first incubated with 50 µM hyperoside for 4 h and then irradiated with UVA radiation. […] Irradiating the cells by UV led to cluster disruption and changes in shape. It caused cell swelling, resulting in a decrease in the diameter (19.16 μm for UVA; 23.13 μm for UVB), an increase in the height (4.24 μm for UVA; 3.44 μm for UVB), and an overall elliptic shape compared to control cells (Figure 9). However, the pre-treatment of the cells with hyperoside prevented cells from those UVA-induced morphological changes. After the irradiation, the cells still formed clusters and there were no significant changes in the median of the diameter (29.87 μm) and median of the height (2.24 μm).
HaCaT cells were seeded in Petri dishes (Willco, NLD) containing 2 mL of DMEM. The following day, the cells were exposed to UVA for 90 min and UVB for 20 min. Some cells were pre-incubated with 50 μM hyperoside for 4 h. Before irradiation, the growth medium was replaced with fresh DMEM. Immediately after irradiation, AFM measurements were performed using a Bioscope Catalyst atomic force microscope (Bruker, Billerica, MA, USA). The size of the cell scan was 100 × 100 μm and the scan rate was 0.2–0.3 Hz. […]

[8] = tested on: A549 (lung adenocarcinoma); parameters: method as in PMID 31881478; details: A549, 24 h; read-out: concentration that halved cell viability; cited from earlier work
[9] = tested on: H1975 (non-small cell lung cancer); details: H1975, 24 h; read-out: concentration that halved cell viability; cited from earlier work
[10] = tested on: PANC-1 (pancreatic cancer); parameters: method as in PMID 26676634; details: PANC-1, 24 h; read-out: concentration that halved cell viability; cited from earlier work
[11] = 100 μM, UVB 3 min 0.6 J/cm^2, vs irradiated sample without compound

O=C(c1ccccc1)c1ccc(O)cc1O [2,4-dihydroxybenzophenone]
IC50 at 18 h [1]: 85 µM
change in mitochondrial membrane potential after UV (HaCaT cells [2]): higher values of the mitochondrial membrane potential

COc1ccc(C(=O)c2ccccc2)c(O)c1 [2-hydroxy-4-methoxybenzophenone]
IC50 at 18 h [1]: 56 µM
change in mitochondrial membrane potential after UV (HaCaT cells [2]): higher values of the mitochondrial membrane potential
DNA fragmentation after UVA (percentage of DNA in comet heads) (HaCaT cells [3]): reduction in DNA fragmentation

Cc1ccc(C=C2C(=O)C3(C)CCC2C3(C)C)cc1 (stereo not shown) [3-(4-methylbenzylidene)camphor]
IC50 at 18 h [1]: 28 µM
ROS production during UVA exposure (HaCaT cells [4]; 3 and 10 μM): statistically significant decrease in ROS production
DNA fragmentation after UVA (percentage of DNA in comet heads) (HaCaT cells [3]): reduction in DNA fragmentation

O=c1c(O[C@@H]2O[C@H](CO)[C@@H](O)[C@H](O)[C@H]2O)c(-c2ccc(O)cc2)oc2cc(O)cc(O)c12 [astragalin]
IC50 at 18 h [1]: 78 µM
DNA fragmentation after UVA (percentage of DNA in comet heads) (HaCaT cells [3]): reduction in DNA fragmentation

CC1=C(/C=C/C(C)=C/C=C/C(C)=C/C=C/C=C(C)/C=C/C=C(C)/C=C/C2=C(C)CCCC2(C)C)C(C)(C)CCC1 [beta-carotene]
IC50 at 18 h [1]: 7.3 µM
change in mitochondrial membrane potential after UV (HaCaT cells [2]): higher values of the mitochondrial membrane potential

O=c1c(O[C@@H]2O[C@H](CO)[C@H](O)[C@H](O)[C@H]2O)c(-c2ccc(O)c(O)c2)oc2cc(O)cc(O)c12 [hyperoside]
IC50 at 18 h [1]: > 300 µM
cell viability (not reduced below) (HaCaT cells [5]): ≥ 60%
change in cell viability after UVA (HaCaT cells [6]; 100 μM): also observed for UVA radiation, although to a lesser extent
change in cell viability after UVB (HaCaT cells [6]; [11]): statistically significant increase in cell viability
change in viability of EpiDerm after UVA irradiation (epidermis model EpiDerm): significantly increased its viability
ROS production during UVA exposure (HaCaT cells [4]; 100 μM): statistically significant decrease in ROS production
ROS induced by UVB irradiation (HaCaT cells [4]; 30 and 100 μM, UVB 3 min 0.6 J/cm^2): effective in reducing ROS
change in mitochondrial membrane potential after UV (HaCaT cells [2]): opposite effect
DNA fragmentation after UVA (percentage of DNA in comet heads) (HaCaT cells [3]): reduction in DNA fragmentation
median of the cell height after UVA (HaCaT cells [7]; then UVA 36 J/cm^2, untreated control 2.02 μm, UVA alone 4.24 μm): 2.24 μm
median of the cell diameter after UVA (HaCaT cells [7]; then UVA 36 J/cm^2, untreated control 31.21 μm, UVA alone 19.16 μm): 29.87 μm
IC50 [8]: ~400 µM
IC50 [9]: ~100 µM
IC50 [10]: ~550 µM

COc1cc(O)c2c(=O)c(OC)c(-c3ccc(O)c(OC)c3)oc2c1 [pachypodol]
IC50 at 18 h [1]: 5.1 µM
reduction in cell viability (HaCaT cells [5]; at 10 μM): > 50%
change in cell viability after UVB (HaCaT cells [6]; apparently non-toxic concentrations, UVB 0.6 J/cm^2): cell viability decreased significantly

O=C(O)/C=C/c1c[nH]cn1 [trans-urocanic acid]
IC50 at 18 h [1]: 1100 µM
cell viability (not reduced below) (HaCaT cells [5]): ≥ 60%
change in cell viability after UVA (HaCaT cells [6]; 100 μM): only linked with UVB radiation
change in cell viability after UVB (HaCaT cells [6]; [11]): statistically significant increase in cell viability
change in viability of EpiDerm after UVA irradiation (epidermis model EpiDerm): no similar effect was observed
